Results: article PMC12257413, “Discovery of a Novel sp^3‑Rich M1 Positive Allosteric Modulators (PAMs) Chemotype via Scaffold Hopping” (ACS Medicinal Chemistry Letters, 2025)

Target: T1, human muscarinic receptor subtype 1 (M1) (Homo sapiens, UniProt P11229)
T1 sequence (P11229 1-460): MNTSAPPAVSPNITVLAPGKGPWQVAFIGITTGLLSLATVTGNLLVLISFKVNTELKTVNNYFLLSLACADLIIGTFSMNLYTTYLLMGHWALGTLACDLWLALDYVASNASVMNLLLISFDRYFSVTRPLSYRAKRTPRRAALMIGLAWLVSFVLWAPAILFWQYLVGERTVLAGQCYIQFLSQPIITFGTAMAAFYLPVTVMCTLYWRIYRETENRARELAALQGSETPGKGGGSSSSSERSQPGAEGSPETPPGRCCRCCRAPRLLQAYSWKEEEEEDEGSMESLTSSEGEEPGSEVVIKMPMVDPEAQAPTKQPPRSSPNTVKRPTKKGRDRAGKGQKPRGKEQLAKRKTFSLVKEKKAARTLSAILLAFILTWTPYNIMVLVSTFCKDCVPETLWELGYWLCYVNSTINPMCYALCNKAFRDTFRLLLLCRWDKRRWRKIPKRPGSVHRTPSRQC
Assay: Calcium mobilization assay in hM1-CHO cells, PAM activity with EC20 acetylcholine
Assay type: cell-based
Details: for EC50: read-out: hM1 pEC50 ± SEM (converted)
Method: page 2: Procedures for Biological Experiments Calcium mobilization assays: To measure the functional activity of positive allosteric modulator (PAM) compounds in a cellular assay, human or rat muscarinic receptor subtype 1 (M1) was stably expressed in the Chinese hamster ovary (CHO) cells to evoke an increase in intracellular calcium to an EC20 concentration of acetylcholine (ACh) agonist. The stable M1-CHO cells were cultured in F12 medium containing 10% fetal bovine serum, 20 mM HEPES, 100 units/mL antibiotics/antimycotic, 0.5 mg/ml G418. All reagents used were from Life Technologies (Carlsbad, CA) unless otherwise noted. Briefly, the day before the assay, stable M1-CHO cells (15,000 cells/20 μL/well) were plated in black-walled, clear-bottomed, 384 well plates (Greiner Bio-One, Monroe, NC) in the culture medium without G418, and then incubated overnight at 37 °C in the presence of 5% CO2. The next day, calcium assay buffer (Hank’s balanced salt solution (HBSS), 20 mM HEPES, 2.5 mM Probenecid, 4.16 mM sodium bicarbonate (Sigma-Aldrich, St. Louis, MO) was prepared to dilute […] calcium indicator dye. […] curves in DMSO using the Bravo Liquid Handler (Agilent, Santa Clara, CA), transferred to a 384 well daughter plates using an Echo acoustic liquid handler (Beckman Coulter, Indianapolis, Indiana), and diluted in assay Buffer to a 2X final concentration. The agonist plates were prepared using acetylcholine (ACh, Sigma-Aldrich, St. Louis, MO) concentrations for the EC20 and ECMAX responses by diluting in assay buffer to a 5X final concentration. The 2X dye solution (2.3 µM) was prepared by mixing a 2.3 mM Fluo-4-AM stock in DMSO with 10% (w/v) pluronic acid F- 127 in a 1:1 ratio in assay buffer. Using a microplate washer (BioTek, Winooski, VT), cells were washed with assay buffer for 3 times to remove medium. After the final wash, 20 μL of assay buffer remained in the cell plates. Immediately, 20 μL of the 2X dye solution (final 1.15 µM) was added to each well of the cell plate using a Multidrop Combi dispenser (Thermo Fisher, Waltham, MA). After cells were incubated with the dye solutions for 45 min at 37 °C in the presence of 5% CO2, the dye solutions were removed and replaced with assay buffer using a microplate washer, leaving 20 μL of assay buffer in the cell plate. The compound, agonist, and cell plates were placed inside the Functional Drug Screening System uCell (FDSS uCell, Hamamatsu, Japan) to measure the calcium flux. The triple add protocol was used to measure Ca kinetics; Compound, ACh for EC20, and ACh for ECMAX adds in an order. Briefly, after establishment of a fluorescence baseline S2 page 3: for 2 seconds (excitation, 480 nm; emission, 530 nm), first add occurred by adding 20 µL of test compound to the cells, and the response was measured for 140 seconds. This is followed by second add; 10 µL (5X) of an EC20 concentration of ACh agonist was added to the cells, and the response of the cells was measured for 125 seconds. Immediately, the third add occurred by adding 12 ul assay buffer or 5X of an EC max concentration of ACh and the response of the cells was measured for 90 seconds. Assay buffer was added to the wells that incubated with compounds followed by EC20 concentration of ACh. Agonists containing ECmax concentration of ACh were added to the wells that incubated with DMSO and assay buffer from the 1st and 2nd adds to measure maximum Ca responses (ECmax). Calcium fluorescence was recorded as fold over basal fluorescence and raw data were normalized to the maximal response to ACh agonist. […]

hM1 %ACh Max ± SEM | EC50 | Structure (SMILES)
82 ± 3.4 %ACh Max | 427 nM | Cn1cc(-c2ccc(Cc3cc(C(=O)N[C@H]4CCOC[C@@H]4O)nn3C3CCCC3)cc2)cn1 [17g]
82 ± 4.4 %ACh Max | 589 nM | Cn1cc(-c2ccc(Cc3cc(C(=O)N[C@H]4CCCC[C@@H]4O)nn3C3CCCC3)cc2)cn1 [17k]
